Source: BigSolDB 2.1

CN1C(C(=O)Nc2ccccn2)=C(O)c2sccc2S1(=O)=O
Details	solubility (mole fraction)
in PEG-400, 298.15 K	0.0098
in PEG-400, 303.15 K	0.0134
in PEG-400, 308.15 K	0.0178
in PEG-400, 313.15 K	0.0228
in PEG-400, 323.15 K	0.035

in water
Details	solubility (mole fraction)
298.15 K	4.13e-06
303.15 K	5.1e-06
308.15 K	6.62e-06
313.15 K	8.49e-06
323.15 K	1.4e-05
